Key:
Rattus norvegicus = assay: Inhibition of CP-55940-induced hypothermia in rat at 3 mg/kg, iv after 30 mins; type: functional; settings: 0.5 h
Cannabinoid receptor 2 = Cannabinoid receptor 2 (Homo sapiens, UniProt P34972); assay: Displacement of [3H]CP-55940 from human recombinant CB2 receptor expressed in CHO cells; type: cell-based
Cannabinoid receptor 1 [1] = target: Cannabinoid receptor 1 (Homo sapiens, UniProt P21554); assay: biochemical; type: cell-based, CHO
[2] = Plasma clearance in rat at 1 mg/kg, iv or 2 mg/kg, po; type: ADME, organism-based
[3] = Ratio of drug level in brain to plasma in rat at 1 mg/kg, iv at 0.25 h; type: ADME, organism-based; set-up: dose 1 mg/kg, route intravenous
[4] = Ratio of drug level in brain to plasma in rat at 1 mg/kg, iv at 2 hrs; type: ADME, organism-based; set-up: dose 1 mg/kg, route intravenous
[5] = Volume of distribution at steady state in rat at 1 mg/kg, iv or 2 mg/kg, po; type: ADME, organism-based; settings: in vivo, read-out: Vdss
[6] = Plasma concentration in rat at 1 mg/kg, iv at 0.25 h; type: ADME, organism-based; set-up: dose 1 mg/kg, route intravenous
[7] = Plasma concentration in rat at 1 mg/kg, iv at 1 h; type: ADME, organism-based; set-up: dose 1 mg/kg, route intravenous
[8] = Oral bioavailability in rat at 1 mg/kg, iv or 2 mg/kg, po; type: ADME, organism-based; settings: in vivo
[9] = Ratio of drug level in brain to plasma in rat at 1 mg/kg, iv at 1 h; type: ADME, organism-based; set-up: dose 1 mg/kg, route intravenous
[10] = Half life in rat at 1 mg/kg, iv or 2 mg/kg, po; type: ADME, organism-based; settings: in vivo
[11] = Brain concentration in rat at 1 mg/kg, iv at 1 h; type: ADME, organism-based; set-up: dose 1 mg/kg, route intravenous; settings: read-out: Activity
[12] = Plasma concentration in rat at 1 mg/kg, iv at 2 hrs; type: ADME, organism-based; set-up: dose 1 mg/kg, route intravenous
[13] = Brain concentration in rat at 1 mg/kg, iv at 2 hrs; type: ADME, organism-based; set-up: dose 1 mg/kg, route intravenous; settings: read-out: Activity
[14] = Brain concentration in rat at 1 mg/kg, iv at 0.25 h; type: ADME, organism-based; set-up: dose 1 mg/kg, route intravenous; settings: read-out: Activity
[15] = Cmax in rat at 1 mg/kg, iv or 2 mg/kg, po; type: ADME, organism-based; settings: in vivo
Cannabinoid receptor 1 [16] = target: Cannabinoid receptor 1 (Rattus norvegicus, UniProt P20272); assay: Binding affinity at rat CB1 receptor
Sequence of Cannabinoid receptor 1 (Rattus norvegicus, UniProt P20272) (P20272 whole entry): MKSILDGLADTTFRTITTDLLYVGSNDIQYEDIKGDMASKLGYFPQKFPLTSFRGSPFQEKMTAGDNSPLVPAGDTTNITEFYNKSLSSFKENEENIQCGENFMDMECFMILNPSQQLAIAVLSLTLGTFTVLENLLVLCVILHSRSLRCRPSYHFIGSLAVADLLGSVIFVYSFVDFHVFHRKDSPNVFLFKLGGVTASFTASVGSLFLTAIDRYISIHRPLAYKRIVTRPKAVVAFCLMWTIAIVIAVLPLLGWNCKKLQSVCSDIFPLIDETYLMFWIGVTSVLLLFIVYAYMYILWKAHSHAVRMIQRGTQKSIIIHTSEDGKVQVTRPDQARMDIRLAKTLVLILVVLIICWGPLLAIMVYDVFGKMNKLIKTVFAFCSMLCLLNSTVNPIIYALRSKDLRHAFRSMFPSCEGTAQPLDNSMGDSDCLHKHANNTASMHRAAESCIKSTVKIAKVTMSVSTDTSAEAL

Sequence of Cannabinoid receptor 1 (Homo sapiens, UniProt P21554) (P21554 whole entry): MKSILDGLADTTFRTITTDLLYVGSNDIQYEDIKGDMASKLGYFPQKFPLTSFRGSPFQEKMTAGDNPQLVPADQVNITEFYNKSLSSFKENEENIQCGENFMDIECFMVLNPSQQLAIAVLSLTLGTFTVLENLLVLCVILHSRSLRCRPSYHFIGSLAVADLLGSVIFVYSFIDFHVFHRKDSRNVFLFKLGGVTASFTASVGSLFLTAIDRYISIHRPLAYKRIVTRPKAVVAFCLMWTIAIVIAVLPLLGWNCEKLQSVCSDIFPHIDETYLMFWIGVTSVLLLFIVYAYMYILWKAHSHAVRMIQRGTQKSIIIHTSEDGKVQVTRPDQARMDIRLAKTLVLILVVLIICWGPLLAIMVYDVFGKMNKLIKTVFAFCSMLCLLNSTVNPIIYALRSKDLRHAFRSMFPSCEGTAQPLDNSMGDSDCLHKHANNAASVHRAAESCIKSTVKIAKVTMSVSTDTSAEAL
Sequence of Cannabinoid receptor 2 (P34972 whole entry): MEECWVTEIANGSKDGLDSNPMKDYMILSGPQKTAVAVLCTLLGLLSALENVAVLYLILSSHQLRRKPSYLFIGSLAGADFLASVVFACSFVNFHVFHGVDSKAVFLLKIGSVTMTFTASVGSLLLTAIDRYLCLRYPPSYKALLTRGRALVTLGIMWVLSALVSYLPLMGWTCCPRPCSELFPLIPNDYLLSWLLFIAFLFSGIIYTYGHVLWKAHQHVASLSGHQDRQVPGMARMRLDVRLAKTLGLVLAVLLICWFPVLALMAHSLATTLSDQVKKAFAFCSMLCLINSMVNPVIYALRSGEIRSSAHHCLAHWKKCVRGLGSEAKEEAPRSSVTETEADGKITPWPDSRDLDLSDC

Structure (SMILES)	IC50 (Cannabinoid receptor 2) [nM]	IC50 (Cannabinoid receptor 1 [1]) [nM]	further results
Cc1c(C(=O)NN2CCCCC2)nn(-c2ccc(Cl)cc2Cl)c1-c1ccc(Cl)cc1 [RIMONABANT]			inhibition in vivo at 3 mg/kg (Rattus norvegicus): 97.9%
C[C@H](NS(=O)(=O)c1ccccc1)[C@@H](Cc1ccc(Cl)cc1)c1cccc(C#N)c1	1490	9.7	
C[C@H](NS(=O)(=O)/C=C/c1ccccc1)[C@@H](Cc1ccc(Cl)cc1)c1cccc(C#N)c1	1080	41.8	
C[C@H](NC(=O)c1cc(Cl)cc(Cl)c1)[C@@H](Cc1ccc(Cl)cc1)c1cccc(C#N)c1	181	282	
C[C@@H]([C@@H](Cc1ccc(Cl)cc1)c1cccc(C#N)c1)N(C)S(C)(=O)=O	> 2000	> 2000	
C[C@H](NS(=O)(=O)c1cccc(-c2ccccc2)c1)[C@@H](Cc1ccc(Cl)cc1)c1cccc(C#N)c1	394	2.8	clearance [2]: 10.6 mL/min/kg; Kp at 0.25 h [3]: 0.66; Kp at 2 h [4]: 1; inhibition in vivo at 3 mg/kg (Rattus norvegicus): 48.9%; Vd [5]: 6.9 L/kg; concentration at 0.25 h [6]: 220 nM; concentration at 1 h [7]: 113 nM; bioavailability [8]: 48%; Kp at 1 h [9]: 0.82; half-life [10]: 8.4 h; concentration at 1 h [11]: 92 nM; concentration at 2 h [12]: 54 nM; concentration at 2 h [13]: 54 nM; concentration at 0.25 h [14]: 146 nM; Cmax [15]: 343 nM; IC50 (Cannabinoid receptor 1 [16]): 2.3 nM
C[C@H](NS(=O)(=O)c1ccc(-c2ccccc2)cc1)[C@@H](Cc1ccc(Cl)cc1)c1cccc(C#N)c1	406	23	
C[C@H](NS(=O)(=O)c1cc(Cl)c(Cl)cc1Cl)[C@@H](Cc1ccc(Cl)cc1)c1cccc(C#N)c1	622	16	
C[C@H](NS(=O)(=O)c1ccccc1Cl)[C@@H](Cc1ccc(Cl)cc1)c1cccc(C#N)c1	668	12.3	
C[C@H](NS(C)(=O)=O)[C@@H](Cc1ccc(Cl)cc1)c1cccc(C#N)c1	> 2000	> 2000	
C[C@H](NS(=O)(=O)c1ccc2ccccc2c1)[C@@H](Cc1ccc(Cl)cc1)c1cccc(C#N)c1	1090	15	
C[C@H](NS(=O)(=O)Cc1ccccc1Cl)[C@@H](Cc1ccc(Cl)cc1)c1cccc(C#N)c1	1920	16	
C[C@H](NC(=O)c1ccccc1)[C@@H](Cc1ccc(Cl)cc1)c1cccc(C#N)c1	1910	845	
C[C@H](NS(=O)(=O)c1ccc(Cl)cc1Cl)[C@@H](Cc1ccc(Cl)cc1)c1cccc(C#N)c1	301	7.1	
C[C@H](NS(=O)(=O)c1ccc(Cl)cc1)[C@@H](Cc1ccc(Cl)cc1)c1cccc(C#N)c1	454	21.7	
C[C@H](NC(=O)CCc1ccccc1)[C@@H](Cc1ccc(Cl)cc1)c1cccc(C#N)c1	1370	38.3	
C[C@H](NS(=O)(=O)c1cc(Cl)ccc1Cl)[C@@H](Cc1ccc(Cl)cc1)c1cccc(C#N)c1	498	7.4	

Structure (SMILES)	IC50 (Cannabinoid receptor 2) [nM]	IC50 (Cannabinoid receptor 1 [1]) [nM]	further results
C[C@H](NS(=O)(=O)Cc1ccccc1)[C@@H](Cc1ccc(Cl)cc1)c1cccc(C#N)c1	> 2000	20.9	
CCCCS(=O)(=O)N[C@@H](C)[C@@H](Cc1ccc(Cl)cc1)c1cccc(C#N)c1	1440	75.2	
C[C@H](NC(=O)c1c(Cl)cccc1Cl)[C@@H](Cc1ccc(Cl)cc1)c1cccc(C#N)c1	945	37.2	
C[C@H](NC(=O)Cc1ccccc1)[C@@H](Cc1ccc(Cl)cc1)c1cccc(C#N)c1	> 2000	44.1	
C[C@H](NS(=O)(=O)c1cccc2ccccc12)[C@@H](Cc1ccc(Cl)cc1)c1cccc(C#N)c1	1120	21.1	
C[C@H](NS(=O)(=O)c1cc(Cl)cc(Cl)c1)[C@@H](Cc1ccc(Cl)cc1)c1cccc(C#N)c1	998	11.4	
C[C@H](NS(=O)(=O)c1cccc(Cl)c1)[C@@H](Cc1ccc(Cl)cc1)c1cccc(C#N)c1	808	13.9	
C[C@H](NS(=O)(=O)Cc1ccc(Cl)cc1)[C@@H](Cc1ccc(Cl)cc1)c1cccc(C#N)c1	1760	15.4	
C[C@H](NS(=O)(=O)c1cc(F)cc(F)c1)[C@@H](Cc1ccc(Cl)cc1)c1cccc(C#N)c1	1080	5.1	
C[C@@H]([C@@H](Cc1ccc(Cl)cc1)c1cccc(C#N)c1)N(C)S(=O)(=O)c1cc(Cl)cc(Cl)c1	> 2000	> 2000	
C[C@H](NS(=O)(=O)c1c(Cl)cccc1Cl)[C@@H](Cc1ccc(Cl)cc1)c1cccc(C#N)c1	283	29.8	
C[C@H](NS(=O)(=O)CCc1ccccc1)[C@@H](Cc1ccc(Cl)cc1)c1cccc(C#N)c1	904	19.3	
C[C@H](NS(=O)(=O)c1cc(C(F)(F)F)cc(C(F)(F)F)c1)[C@@H](Cc1ccc(Cl)cc1)c1cccc(C#N)c1	1760	3.2	
C[C@H](NS(=O)(=O)Cc1cccc(Cl)c1)[C@@H](Cc1ccc(Cl)cc1)c1cccc(C#N)c1	2000	53.5	
C[C@H](NS(=O)(=O)c1cccc(Cl)c1Cl)[C@@H](Cc1ccc(Cl)cc1)c1cccc(C#N)c1	202	10.7	
C[C@H](NS(=O)(=O)C(C)(C)C)[C@@H](Cc1ccc(Cl)cc1)c1cccc(C#N)c1	> 2000	1680	

Reference: ChEMBL document CHEMBL1144613, “Substituted acyclic sulfonamides as human cannabinoid-1 receptor inverse agonists” (Bioorg Med Chem Lett, 2007)
